Residues, ends and D or L forms follow the SMILES beside them.
Test system: normal human epidermal keratinocytes (NHEKs)
Experiment: LDH release cytotoxicity assay in keratinocytes
Format: cell-based
Details: minimal concentration giving 50% LDH release by NHEKs
From the text: Since LL-34 was the minimal truncation mutant of LL-37 that retained both antimicrobial and immune modulatory activity, we prepared a series of synthetic peptides with sequential substitutions of alanine at each amino acid position of the LL-34 parent peptide (Table 1). We compared the minimum inhibitory concentration (MIC) for the LL-34 parent peptide and the alanine mutants (LL-34 peptides—L1A and R34A) against methicillin-resistant Staphylococcus aureus strain USA300 (Fig. 1A). LL-34 peptides were incubated at concentrations of 0 to 100 μM with bacteria. The minimal concentration at which no growth was observed was noted after 18 h of incubation. […] Because of these changes in the MIC against S. aureus between the mutants, we investigated the effective toxicity profile of the peptides in normal human epidermal keratinocytes (NHEKs) by lactate dehydrogenase (LDH) release assay (Table 1). […] Most other peptides were cytotoxic at a minimal concentration of 10 μM, whereas LL-34—K15A was toxic at a concentration of 2.5 μM.
LDH cytotoxicity assay was performed according to manufacturer's instructions (Thermo Fisher Scientific). Culture supernatants from keratinocytes were used fresh for LDH assay after experimental treatments.

SMILES | Minimal cytotoxic concentration in NHEK (LD50)
CC[C@H](C)[C@H](NC(=O)[C@H](CCCCN)NC(=O)[C@H](CCC(=O)O)NC(=O)[C@H](CCCCN)NC(=O)[C@H](CO)NC(=O)[C@H](CCCCN)NC(=O)[C@H](CCCNC(=N)N)NC(=O)[C@H](Cc1ccccc1)NC(=O)[C@H](Cc1ccccc1)NC(=O)[C@H](CC(=O)O)NC(=O)CNC(=O)[C@H](CC(C)C)NC(=O)[C@@H](N)CC(C)C)C(=O)NCC(=O)N[C@@H](CCCCN)C(=O)N[C@@H](CCC(=O)O)C(=O)N[C@@H](Cc1ccccc1)C(=O)N[C@@H](CCCCN)C(=O)N[C@@H](CCCNC(=N)N)C(=O)N[C@H](C(=O)N[C@H](C(=O)N[C@@H](CCC(N)=O)C(=O)N[C@@H](CCCNC(=N)N)C(=O)N[C@H](C(=O)N[C@@H](CCCCN)C(=O)N[C@@H](CC(=O)O)C(=O)N[C@@H](Cc1ccccc1)C(=O)N[C@@H](CC(C)C)C(=O)N[C@@H](CCCNC(=N)N)C(=O)N[C@@H](CC(N)=O)C(=O)N[C@@H](CC(C)C)C(=O)N[C@H](C(=O)N[C@@H](C)C(=O)N[C@@H](CCCNC(=N)N)C(=O)O)C(C)C)[C@@H](C)CC)C(C)C)[C@@H](C)CC [LL-34—P33A] (H-LLGDFFRKSKEKIGKEFKRIVQRIKDFLRNLVAR-OH; N-terminus and C-terminus assumed) | 10 µM
CC[C@H](C)[C@H](NC(=O)[C@H](CCCCN)NC(=O)[C@H](CCC(=O)O)NC(=O)[C@H](CCCCN)NC(=O)[C@H](CO)NC(=O)[C@H](CCCCN)NC(=O)[C@H](CCCNC(=N)N)NC(=O)[C@H](Cc1ccccc1)NC(=O)[C@H](Cc1ccccc1)NC(=O)[C@H](CC(=O)O)NC(=O)CNC(=O)[C@H](CC(C)C)NC(=O)[C@@H](N)CC(C)C)C(=O)NCC(=O)N[C@@H](CCCCN)C(=O)N[C@@H](CCC(=O)O)C(=O)N[C@@H](Cc1ccccc1)C(=O)N[C@@H](CCCCN)C(=O)N[C@@H](CCCNC(=N)N)C(=O)N[C@H](C(=O)N[C@H](C(=O)N[C@@H](C)C(=O)N[C@@H](CCCNC(=N)N)C(=O)N[C@H](C(=O)N[C@@H](CCCCN)C(=O)N[C@@H](CC(=O)O)C(=O)N[C@@H](Cc1ccccc1)C(=O)N[C@@H](CC(C)C)C(=O)N[C@@H](CCCNC(=N)N)C(=O)N[C@@H](CC(N)=O)C(=O)N[C@@H](CC(C)C)C(=O)N[C@H](C(=O)N1CCC[C@H]1C(=O)N[C@@H](CCCNC(=N)N)C(=O)O)C(C)C)[C@@H](C)CC)C(C)C)[C@@H](C)CC [LL-34—Q22A] (H-LLGDFFRKSKEKIGKEFKRIVARIKDFLRNLVPR-OH; N-terminus and C-terminus assumed) | 5 µM
CC[C@H](C)[C@H](NC(=O)[C@H](CCCCN)NC(=O)[C@H](CCC(=O)O)NC(=O)[C@H](CCCCN)NC(=O)[C@H](CO)NC(=O)[C@H](CCCCN)NC(=O)[C@H](C)NC(=O)[C@H](Cc1ccccc1)NC(=O)[C@H](Cc1ccccc1)NC(=O)[C@H](CC(=O)O)NC(=O)CNC(=O)[C@H](CC(C)C)NC(=O)[C@@H](N)CC(C)C)C(=O)NCC(=O)N[C@@H](CCCCN)C(=O)N[C@@H](CCC(=O)O)C(=O)N[C@@H](Cc1ccccc1)C(=O)N[C@@H](CCCCN)C(=O)N[C@@H](CCCNC(=N)N)C(=O)N[C@H](C(=O)N[C@H](C(=O)N[C@@H](CCC(N)=O)C(=O)N[C@@H](CCCNC(=N)N)C(=O)N[C@H](C(=O)N[C@@H](CCCCN)C(=O)N[C@@H](CC(=O)O)C(=O)N[C@@H](Cc1ccccc1)C(=O)N[C@@H](CC(C)C)C(=O)N[C@@H](CCCNC(=N)N)C(=O)N[C@@H](CC(N)=O)C(=O)N[C@@H](CC(C)C)C(=O)N[C@H](C(=O)N1CCC[C@H]1C(=O)N[C@@H](CCCNC(=N)N)C(=O)O)C(C)C)[C@@H](C)CC)C(C)C)[C@@H](C)CC [LL-34—R7A] (H-LLGDFFAKSKEKIGKEFKRIVQRIKDFLRNLVPR-OH; N-terminus and C-terminus assumed) | 5 µM
CC[C@H](C)[C@H](NC(=O)[C@H](C)NC(=O)[C@H](CCCCN)NC(=O)[C@H](Cc1ccccc1)NC(=O)[C@H](CCC(=O)O)NC(=O)[C@H](CCCCN)NC(=O)CNC(=O)[C@@H](NC(=O)[C@H](CCCCN)NC(=O)[C@H](CCC(=O)O)NC(=O)[C@H](CCCCN)NC(=O)[C@H](CO)NC(=O)[C@H](CCCCN)NC(=O)[C@H](CCCNC(=N)N)NC(=O)[C@H](Cc1ccccc1)NC(=O)[C@H](Cc1ccccc1)NC(=O)[C@H](CC(=O)O)NC(=O)CNC(=O)[C@H](CC(C)C)NC(=O)[C@@H](N)CC(C)C)[C@@H](C)CC)C(=O)N[C@H](C(=O)N[C@@H](CCC(N)=O)C(=O)N[C@@H](CCCNC(=N)N)C(=O)N[C@H](C(=O)N[C@@H](CCCCN)C(=O)N[C@@H](CC(=O)O)C(=O)N[C@@H](Cc1ccccc1)C(=O)N[C@@H](CC(C)C)C(=O)N[C@@H](CCCNC(=N)N)C(=O)N[C@@H](CC(N)=O)C(=O)N[C@@H](CC(C)C)C(=O)N[C@H](C(=O)N1CCC[C@H]1C(=O)N[C@@H](CCCNC(=N)N)C(=O)O)C(C)C)[C@@H](C)CC)C(C)C [LL-34—R19A] (H-LLGDFFRKSKEKIGKEFKAIVQRIKDFLRNLVPR-OH; N-terminus and C-terminus assumed) | 10 µM
CC[C@H](C)[C@H](NC(=O)[C@H](CCCCN)NC(=O)[C@H](CCC(=O)O)NC(=O)[C@H](CCCCN)NC(=O)[C@H](CO)NC(=O)[C@H](CCCCN)NC(=O)[C@H](CCCNC(=N)N)NC(=O)[C@H](Cc1ccccc1)NC(=O)[C@H](Cc1ccccc1)NC(=O)[C@H](CC(=O)O)NC(=O)CNC(=O)[C@H](CC(C)C)NC(=O)[C@@H](N)CC(C)C)C(=O)NCC(=O)N[C@@H](CCCCN)C(=O)N[C@@H](CCC(=O)O)C(=O)N[C@@H](Cc1ccccc1)C(=O)N[C@@H](CCCCN)C(=O)N[C@@H](CCCNC(=N)N)C(=O)N[C@H](C(=O)N[C@H](C(=O)N[C@@H](CCC(N)=O)C(=O)N[C@@H](CCCNC(=N)N)C(=O)N[C@H](C(=O)N[C@@H](CCCCN)C(=O)N[C@@H](CC(=O)O)C(=O)N[C@@H](Cc1ccccc1)C(=O)N[C@@H](CC(C)C)C(=O)N[C@@H](C)C(=O)N[C@@H](CC(N)=O)C(=O)N[C@@H](CC(C)C)C(=O)N[C@H](C(=O)N1CCC[C@H]1C(=O)N[C@@H](CCCNC(=N)N)C(=O)O)C(C)C)[C@@H](C)CC)C(C)C)[C@@H](C)CC [LL-34—R29A] (H-LLGDFFRKSKEKIGKEFKRIVQRIKDFLANLVPR-OH; N-terminus and C-terminus assumed) | 5 µM
CC[C@H](C)[C@H](NC(=O)[C@H](CCCCN)NC(=O)[C@H](CCC(=O)O)NC(=O)[C@H](CCCCN)NC(=O)[C@H](C)NC(=O)[C@H](CCCCN)NC(=O)[C@H](CCCNC(=N)N)NC(=O)[C@H](Cc1ccccc1)NC(=O)[C@H](Cc1ccccc1)NC(=O)[C@H](CC(=O)O)NC(=O)CNC(=O)[C@H](CC(C)C)NC(=O)[C@@H](N)CC(C)C)C(=O)NCC(=O)N[C@@H](CCCCN)C(=O)N[C@@H](CCC(=O)O)C(=O)N[C@@H](Cc1ccccc1)C(=O)N[C@@H](CCCCN)C(=O)N[C@@H](CCCNC(=N)N)C(=O)N[C@H](C(=O)N[C@H](C(=O)N[C@@H](CCC(N)=O)C(=O)N[C@@H](CCCNC(=N)N)C(=O)N[C@H](C(=O)N[C@@H](CCCCN)C(=O)N[C@@H](CC(=O)O)C(=O)N[C@@H](Cc1ccccc1)C(=O)N[C@@H](CC(C)C)C(=O)N[C@@H](CCCNC(=N)N)C(=O)N[C@@H](CC(N)=O)C(=O)N[C@@H](CC(C)C)C(=O)N[C@H](C(=O)N1CCC[C@H]1C(=O)N[C@@H](CCCNC(=N)N)C(=O)O)C(C)C)[C@@H](C)CC)C(C)C)[C@@H](C)CC [LL-34—S9A] (H-LLGDFFRKAKEKIGKEFKRIVQRIKDFLRNLVPR-OH; N-terminus and C-terminus assumed) | 5 µM
CC[C@H](C)[C@H](NC(=O)[C@H](CCCCN)NC(=O)[C@H](CCC(=O)O)NC(=O)[C@H](CCCCN)NC(=O)[C@H](CO)NC(=O)[C@H](CCCCN)NC(=O)[C@H](CCCNC(=N)N)NC(=O)[C@H](Cc1ccccc1)NC(=O)[C@H](Cc1ccccc1)NC(=O)[C@H](CC(=O)O)NC(=O)CNC(=O)[C@H](CC(C)C)NC(=O)[C@@H](N)CC(C)C)C(=O)NCC(=O)N[C@@H](CCCCN)C(=O)N[C@@H](CCC(=O)O)C(=O)N[C@@H](Cc1ccccc1)C(=O)N[C@@H](CCCCN)C(=O)N[C@@H](CCCNC(=N)N)C(=O)N[C@H](C(=O)N[C@@H](C)C(=O)N[C@@H](CCC(N)=O)C(=O)N[C@@H](CCCNC(=N)N)C(=O)N[C@H](C(=O)N[C@@H](CCCCN)C(=O)N[C@@H](CC(=O)O)C(=O)N[C@@H](Cc1ccccc1)C(=O)N[C@@H](CC(C)C)C(=O)N[C@@H](CCCNC(=N)N)C(=O)N[C@@H](CC(N)=O)C(=O)N[C@@H](CC(C)C)C(=O)N[C@H](C(=O)N1CCC[C@H]1C(=O)N[C@@H](CCCNC(=N)N)C(=O)O)C(C)C)[C@@H](C)CC)[C@@H](C)CC [LL-34—V21A] (H-LLGDFFRKSKEKIGKEFKRIAQRIKDFLRNLVPR-OH; N-terminus and C-terminus assumed) | 5 µM

Source: publication PMC8214221, “Sequence determinants in the cathelicidin LL-37 that promote inflammation via presentation of RNA to scavenger receptors” (The Journal of Biological Chemistry, 2021)
